Assay results reported in ChEMBL document CHEMBL1240532, “Spiroindolones, a potent compound class for the treatment of malaria” (Science, 2010).

How the values were obtained:
Plasmodium falciparum [1] = test: microbe, parasite or virus in culture; conditions: TM90C2A
[2] = Intrinsic clearance in dog liver microsome; type: ADME, Canis lupus familiaris; conditions: liver microsomes
[3] = biological target: Hydroxycarboxylic acid receptor 2 (Homo sapiens, UniProt Q8TDS4); test: Binding affinity to human recombinant niacin receptor
[4] = biological target: Muscarinic acetylcholine receptor M3 (Homo sapiens, UniProt P20309); test: Binding affinity to human recombinant muscarinic M3 receptor
Plasmodium falciparum [5] = test: Antimalarial activity against chloroquine and pyrimethamine-resistant Plasmodium falciparum V1/S after 48 hrs incubation by [3H]hypoxanthine incorporation assay
Plasmodium falciparum [6] = test: microbe, parasite or virus in culture; conditions: Dd2, 72 h
[7] = biological target: 5-hydroxytryptamine receptor 2A (Homo sapiens, UniProt P28223); test: Binding affinity to human recombinant serotonin 5-HT2A receptor
hERG (KCNH2) = hERG (KCNH2) (Homo sapiens, UniProt Q12809); test: Inhibition of human ERG at 30 uM
[8] = biological target: Alpha-2B adrenergic receptor (Homo sapiens, UniProt P18089); test: Binding affinity to human recombinant alpha2b receptor
[9] = biological target: 3',5'-cyclic-AMP phosphodiesterase 4D (Homo sapiens, UniProt Q08499); test: Binding affinity to human recombinant PDE4D
Plasmodium falciparum [10] = test: Antimalarial activity against NITD609-resistant Plasmodium falciparum Dd2 Clone1 bearing P-type ATPase4 I398F and P990R mutations after 72 hrs by SYBR green based fluorescence assay; type: functional, organism-based; conditions: Dd2, 72 h
[11] = biological target: Gastric inhibitory polypeptide receptor (Rattus norvegicus, UniProt P43219); test: Binding affinity to rat Gip receptor
Plasmodium falciparum [12] = test: microbe, parasite or virus in culture; conditions: Dd2, 72 h; remark: listed apart in the source
Description: Antimalarial activity against Plasmodium falciparum Dd2 containing attB site inserted in parasite genome and using EF1-alpha promoter driven expressing ATP4 I398F/P990R mutant after 72 hrs by SYBR green based fluorescence assay

Plasmodium falciparum [13] = test: Antimalarial activity against Plasmodium falciparum D6 after 48 hrs incubation by [3H]hypoxanthin incorporation assay
in vivo [14] = conditions: Wistar, rat, po, 23.7 mg/kg
Description: Elimination half life in Wistar rat at 23.7 mg/kg, po

[15] = biological target: Beta-2 adrenergic receptor (Homo sapiens, UniProt P07550); test: Binding affinity to human recombinant adrenergic beta2 receptor
Mu-type opioid receptor = Mu-type opioid receptor (Homo sapiens, UniProt P35372); test: Binding affinity to human recombinant opiate mu receptor
Plasmodium falciparum [16] = test: microbe, parasite or virus in culture; conditions: Dd2, 72 h; remark: listed apart in the source
Description: Antimalarial activity against Plasmodium falciparum Dd2 containing attB site inserted in parasite genome and using EF1-alpha promoter driven expressing ATP4 D1247Y mutant after 72 hrs by SYBR green based fluorescence assay

Plasmodium falciparum [17] = test: microbe, parasite or virus in culture; conditions: Dd2, 72 h; remark: listed apart in the source
Description: Antimalarial activity against Plasmodium falciparum Dd2 containing attB site inserted in parasite genome and using CAM promoter driven expressing ATP4 D1247Y mutant after 72 hrs by SYBR green based fluorescence assay

Plasmodium falciparum [18] = test: microbe, parasite or virus in culture; conditions: Dd2, 72 h; remark: listed apart in the source
Plasmodium falciparum [19] = test: Antimalarial activity against Plasmodium falciparum assessed as […] by SYBR green based fluorescence assay; type: functional, organism-based; conditions: Plasmodium falciparum
[20] = biological target: Beta-1 adrenergic receptor (Homo sapiens, UniProt P08588); test: Binding affinity to human recombinant adrenergic beta-1 receptor
[21] = biological target: Type-1 angiotensin II receptor (Homo sapiens, UniProt P30556); test: Binding affinity to human recombinant angiotensin2 AT1 receptor
[22] = biological target: 5-hydroxytryptamine receptor 1A (Homo sapiens, UniProt P08908); test: Binding affinity to human recombinant serotonin 5-HT1A receptor
[23] = Volume of distribution at steady state in CD1 mouse at 5.4 mg/kg, iv; type: ADME, organism-based; set-up: dose 5.4 mg/kg, route intravenous; conditions: in vivo, read-out: Vdss
[24] = AUC (0 to infinity) in Wistar rat at 23.7 mg/kg, po; type: ADME, organism-based; set-up: time infinity, dose 23.7 mg/kg, route oral; conditions: plasma
Endothelin-1 receptor = Endothelin-1 receptor (Homo sapiens, UniProt P25101); test: Binding affinity to human recombinant endothelin A receptor
[25] = Cmax in CD1 mouse at 24.6 mg/kg, po; type: ADME, organism-based; set-up: dose 24.6 mg/kg, route oral; conditions: in vivo
[26] = biological target: Neurotensin receptor type 1 (Homo sapiens, UniProt P30989); test: Binding affinity to human recombinant neurotensin NT1 receptor
[27] = biological target: Delta-type opioid receptor (Homo sapiens, UniProt P41143); test: Binding affinity to human recombinant opiate delta receptor
[28] = biological target: Corticotropin-releasing factor receptor 2 (Homo sapiens, UniProt Q13324); test: Binding affinity to human recombinant CRF2alpha receptor
Plasmodium berghei [29] = test: Antimalarial activity against Plasmodium berghei GFP ANKA infected in NMRI mice (Mus musculus) assessed as reduction in parasitaemia at 30 mg/kg, perorally administered through 0.5% MCM/0.1%solutol HS15 formulation 24 hrs post infection for 3 days measured 96 hrs post infection; type: functional; set-up: scale not given: the % may be the effect or the level left; conditions: route oral
[30] = biological target: Voltage-gated inwardly rectifying potassium channel KCNH2 (Homo sapiens, UniProt Q12809); test: Inhibition of human ERG by patch clamp method
D(2) dopamine receptor = D(2) dopamine receptor (Homo sapiens, UniProt P14416); test: Binding affinity to human recombinant dopamine D2 receptor
Adenosine receptor A2a = Adenosine receptor A2a (Homo sapiens, UniProt P29274); test: Binding affinity to human recombinant adenosine 2a receptor
[31] = Oral bioavailability in CD1 mouse at 24.6 mg/kg; type: ADME, organism-based; conditions: in vivo
Substance-P receptor = Substance-P receptor (Homo sapiens, UniProt P25103); test: Binding affinity to human recombinant neurokinin NK1 receptor
Thromboxane A2 receptor = Thromboxane A2 receptor (Homo sapiens, UniProt P21731); test: Binding affinity to human recombinant thromboxane A2 receptor
Adenosine receptor A3 = Adenosine receptor A3 (Homo sapiens, UniProt P0DMS8); test: Binding affinity to human recombinant adenosine 3 receptor
Cannabinoid receptor 1 = Cannabinoid receptor 1 (Homo sapiens, UniProt P21554); test: Binding affinity to human recombinant cannabinoid 1 receptor
in vivo [32] = conditions: CD1, mouse, po, 24.6 mg/kg
Description: Elimination half life in CD1 mouse at 24.6 mg/kg, po

Plasmodium berghei [33] = test: Antimalarial activity against Plasmodium berghei GFP ANKA infected in NMRI mice (Mus musculus) assessed as cure rate at 30 mg/kg, perorally administered through 0.5% MCM/0.1%solutol HS15 formulation 24 hrs post infection for 3 days measured on day 30 post infection; type: functional; conditions: route oral
Plasmodium falciparum [34] = type: functional, organism-based; conditions: Dd2, 72 h, read-out: IC50
[35] = AUC (0 to infinity) in CD1 mouse at 5.4 mg/kg, iv; type: ADME, organism-based; set-up: time infinity, dose 5.4 mg/kg, route intravenous; conditions: plasma
Androgen receptor = Androgen receptor (Homo sapiens, UniProt P10275); test: Binding affinity to human recombinant androgen receptor
[36] = biological target: Prostaglandin G/H synthase 1 (Homo sapiens, UniProt P23219); test: Binding affinity to human recombinant COX1
Glucocorticoid receptor = Glucocorticoid receptor (Homo sapiens, UniProt P04150); test: Binding affinity to human recombinant glucocorticoid receptor
Vasopressin V2 receptor = Vasopressin V2 receptor (Homo sapiens, UniProt P30518); test: Binding affinity to human recombinant vasopressin V2 receptor
[37] = Partition coefficient, log P of the compound at pH 7.4; type: physicochemical; conditions: octanol/water
[38] = biological target: Growth hormone secretagogue receptor type 1 (Homo sapiens, UniProt Q92847); test: Binding affinity to human recombinant Ghrelin receptor
[39] = biological target: Voltage-gated L-type calcium channel (Rattus norvegicus, UniProt P22002+Q02485+P27732); test: Binding affinity to rat L-type calcium channel

Thromboxane A2 receptor, sequence (P21731 whole entry): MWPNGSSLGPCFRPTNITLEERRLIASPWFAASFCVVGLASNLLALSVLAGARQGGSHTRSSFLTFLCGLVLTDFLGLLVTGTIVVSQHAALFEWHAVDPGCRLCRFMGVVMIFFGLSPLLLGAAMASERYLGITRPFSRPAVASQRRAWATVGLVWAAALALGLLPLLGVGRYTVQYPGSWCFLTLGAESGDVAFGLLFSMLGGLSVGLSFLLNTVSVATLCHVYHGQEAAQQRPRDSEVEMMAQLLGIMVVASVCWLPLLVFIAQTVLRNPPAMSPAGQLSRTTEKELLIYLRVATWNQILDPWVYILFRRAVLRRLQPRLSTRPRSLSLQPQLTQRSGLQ
Endothelin-1 receptor, sequence (P25101 whole entry): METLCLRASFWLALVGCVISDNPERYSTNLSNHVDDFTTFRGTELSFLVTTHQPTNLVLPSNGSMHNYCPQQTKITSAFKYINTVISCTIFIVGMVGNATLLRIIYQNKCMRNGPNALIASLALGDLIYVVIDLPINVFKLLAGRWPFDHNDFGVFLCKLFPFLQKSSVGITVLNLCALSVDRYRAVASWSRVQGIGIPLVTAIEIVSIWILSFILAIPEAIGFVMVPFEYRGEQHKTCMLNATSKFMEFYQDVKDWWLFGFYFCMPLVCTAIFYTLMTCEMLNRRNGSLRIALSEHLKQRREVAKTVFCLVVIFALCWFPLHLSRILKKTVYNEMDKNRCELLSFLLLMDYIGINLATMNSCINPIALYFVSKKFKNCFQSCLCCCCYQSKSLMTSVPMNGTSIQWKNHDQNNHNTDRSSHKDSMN
D(2) dopamine receptor, sequence (P14416 whole entry): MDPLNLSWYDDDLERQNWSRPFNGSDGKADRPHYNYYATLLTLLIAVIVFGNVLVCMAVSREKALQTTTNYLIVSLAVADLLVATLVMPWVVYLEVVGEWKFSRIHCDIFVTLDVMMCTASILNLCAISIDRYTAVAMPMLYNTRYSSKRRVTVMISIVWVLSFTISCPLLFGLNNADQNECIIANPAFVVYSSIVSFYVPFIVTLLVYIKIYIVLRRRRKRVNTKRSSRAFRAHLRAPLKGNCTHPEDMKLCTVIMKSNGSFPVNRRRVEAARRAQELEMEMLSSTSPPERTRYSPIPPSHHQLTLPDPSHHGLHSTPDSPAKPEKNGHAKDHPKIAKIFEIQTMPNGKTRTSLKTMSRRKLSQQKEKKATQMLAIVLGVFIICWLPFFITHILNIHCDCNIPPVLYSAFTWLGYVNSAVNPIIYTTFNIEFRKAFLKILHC
5-hydroxytryptamine receptor 1A, sequence (P08908 whole entry): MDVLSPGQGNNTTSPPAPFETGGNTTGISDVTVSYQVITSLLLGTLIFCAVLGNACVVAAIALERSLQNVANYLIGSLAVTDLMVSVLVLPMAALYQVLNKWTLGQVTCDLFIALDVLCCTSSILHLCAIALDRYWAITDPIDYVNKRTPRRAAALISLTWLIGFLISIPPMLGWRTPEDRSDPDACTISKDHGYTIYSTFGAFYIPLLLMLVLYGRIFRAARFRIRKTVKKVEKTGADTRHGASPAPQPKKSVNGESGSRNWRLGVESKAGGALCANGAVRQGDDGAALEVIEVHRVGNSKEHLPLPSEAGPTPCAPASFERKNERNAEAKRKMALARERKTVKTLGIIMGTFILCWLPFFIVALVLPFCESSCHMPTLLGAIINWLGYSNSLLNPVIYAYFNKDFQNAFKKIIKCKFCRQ
Beta-1 adrenergic receptor, sequence (P08588 whole entry): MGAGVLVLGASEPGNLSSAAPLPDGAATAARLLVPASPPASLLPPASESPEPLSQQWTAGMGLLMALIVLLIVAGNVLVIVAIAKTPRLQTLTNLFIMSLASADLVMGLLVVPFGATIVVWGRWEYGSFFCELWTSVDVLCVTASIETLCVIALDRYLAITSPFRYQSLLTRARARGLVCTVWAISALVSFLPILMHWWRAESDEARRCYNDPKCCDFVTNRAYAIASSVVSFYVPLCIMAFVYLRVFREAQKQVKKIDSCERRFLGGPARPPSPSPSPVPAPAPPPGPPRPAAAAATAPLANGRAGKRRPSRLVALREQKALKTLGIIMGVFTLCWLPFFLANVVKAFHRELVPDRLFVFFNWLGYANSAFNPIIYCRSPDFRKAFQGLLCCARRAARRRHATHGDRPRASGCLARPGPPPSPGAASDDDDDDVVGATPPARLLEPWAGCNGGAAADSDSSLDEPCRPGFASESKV
Alpha-2B adrenergic receptor, sequence (P18089 whole entry): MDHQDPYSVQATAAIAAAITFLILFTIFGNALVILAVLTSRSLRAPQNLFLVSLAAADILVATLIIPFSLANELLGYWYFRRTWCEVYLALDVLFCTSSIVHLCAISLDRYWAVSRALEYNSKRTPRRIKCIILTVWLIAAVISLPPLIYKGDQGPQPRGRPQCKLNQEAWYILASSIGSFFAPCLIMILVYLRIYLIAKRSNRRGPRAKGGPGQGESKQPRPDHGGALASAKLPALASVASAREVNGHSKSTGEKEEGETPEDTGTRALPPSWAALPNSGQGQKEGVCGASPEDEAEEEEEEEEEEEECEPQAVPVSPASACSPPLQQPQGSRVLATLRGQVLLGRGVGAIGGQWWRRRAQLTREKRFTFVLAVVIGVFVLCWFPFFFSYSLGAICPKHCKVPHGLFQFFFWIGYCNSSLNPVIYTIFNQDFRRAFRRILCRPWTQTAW
Corticotropin-releasing factor receptor 2, sequence (Q13324 whole entry): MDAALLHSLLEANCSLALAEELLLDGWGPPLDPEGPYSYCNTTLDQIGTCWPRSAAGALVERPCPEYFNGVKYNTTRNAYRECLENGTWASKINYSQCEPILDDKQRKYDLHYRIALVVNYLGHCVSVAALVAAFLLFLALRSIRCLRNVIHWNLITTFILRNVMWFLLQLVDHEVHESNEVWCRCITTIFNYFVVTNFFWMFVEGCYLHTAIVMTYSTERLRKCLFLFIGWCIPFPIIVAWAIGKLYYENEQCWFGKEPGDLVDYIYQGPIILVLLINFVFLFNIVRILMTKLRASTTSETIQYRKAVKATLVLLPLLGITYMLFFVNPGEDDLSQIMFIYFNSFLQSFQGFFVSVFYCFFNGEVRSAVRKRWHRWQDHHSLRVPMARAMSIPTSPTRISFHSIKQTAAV
Substance-P receptor, sequence (P25103 whole entry): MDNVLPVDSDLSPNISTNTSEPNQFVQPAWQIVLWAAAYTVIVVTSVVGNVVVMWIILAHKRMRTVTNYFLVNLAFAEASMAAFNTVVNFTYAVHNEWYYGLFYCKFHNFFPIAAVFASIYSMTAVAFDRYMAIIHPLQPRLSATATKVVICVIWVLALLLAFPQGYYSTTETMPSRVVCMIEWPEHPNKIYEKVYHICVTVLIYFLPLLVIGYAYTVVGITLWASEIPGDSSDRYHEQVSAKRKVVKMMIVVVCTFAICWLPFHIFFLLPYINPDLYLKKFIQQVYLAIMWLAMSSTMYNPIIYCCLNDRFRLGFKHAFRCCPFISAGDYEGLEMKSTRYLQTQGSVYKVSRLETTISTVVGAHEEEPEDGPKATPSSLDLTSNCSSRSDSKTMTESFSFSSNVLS
Hydroxycarboxylic acid receptor 2, sequence (Q8TDS4 whole entry): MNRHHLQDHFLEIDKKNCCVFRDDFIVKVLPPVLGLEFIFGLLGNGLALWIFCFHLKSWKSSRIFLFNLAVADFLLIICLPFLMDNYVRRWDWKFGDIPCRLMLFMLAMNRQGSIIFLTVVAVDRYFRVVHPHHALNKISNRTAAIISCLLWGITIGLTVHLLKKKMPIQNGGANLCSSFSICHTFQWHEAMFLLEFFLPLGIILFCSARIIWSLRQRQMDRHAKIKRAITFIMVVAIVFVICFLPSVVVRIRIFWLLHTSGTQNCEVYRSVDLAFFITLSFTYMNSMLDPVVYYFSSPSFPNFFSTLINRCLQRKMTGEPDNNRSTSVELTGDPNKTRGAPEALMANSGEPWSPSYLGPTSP
3',5'-cyclic-AMP phosphodiesterase 4D, sequence (Q08499 whole entry): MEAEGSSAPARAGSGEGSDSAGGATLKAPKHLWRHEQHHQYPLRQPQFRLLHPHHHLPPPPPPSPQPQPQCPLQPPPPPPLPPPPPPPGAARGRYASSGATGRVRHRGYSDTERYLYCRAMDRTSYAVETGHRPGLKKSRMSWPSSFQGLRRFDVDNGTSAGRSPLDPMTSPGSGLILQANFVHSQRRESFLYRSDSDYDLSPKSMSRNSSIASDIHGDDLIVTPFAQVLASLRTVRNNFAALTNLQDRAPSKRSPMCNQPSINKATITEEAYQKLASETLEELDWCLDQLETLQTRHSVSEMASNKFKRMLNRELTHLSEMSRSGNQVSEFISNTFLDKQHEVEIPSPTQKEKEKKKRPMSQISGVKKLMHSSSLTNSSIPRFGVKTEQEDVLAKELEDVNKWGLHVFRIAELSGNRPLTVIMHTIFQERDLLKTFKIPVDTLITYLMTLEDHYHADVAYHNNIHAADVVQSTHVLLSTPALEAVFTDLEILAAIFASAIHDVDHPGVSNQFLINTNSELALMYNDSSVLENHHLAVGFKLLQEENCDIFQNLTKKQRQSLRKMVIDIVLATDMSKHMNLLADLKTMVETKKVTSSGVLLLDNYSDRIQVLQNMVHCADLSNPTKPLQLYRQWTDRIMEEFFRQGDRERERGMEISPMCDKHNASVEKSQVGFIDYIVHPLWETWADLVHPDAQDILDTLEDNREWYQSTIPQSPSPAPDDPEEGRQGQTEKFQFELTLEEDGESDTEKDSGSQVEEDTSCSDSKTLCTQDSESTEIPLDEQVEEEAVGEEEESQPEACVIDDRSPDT
Delta-type opioid receptor, sequence (P41143 whole entry): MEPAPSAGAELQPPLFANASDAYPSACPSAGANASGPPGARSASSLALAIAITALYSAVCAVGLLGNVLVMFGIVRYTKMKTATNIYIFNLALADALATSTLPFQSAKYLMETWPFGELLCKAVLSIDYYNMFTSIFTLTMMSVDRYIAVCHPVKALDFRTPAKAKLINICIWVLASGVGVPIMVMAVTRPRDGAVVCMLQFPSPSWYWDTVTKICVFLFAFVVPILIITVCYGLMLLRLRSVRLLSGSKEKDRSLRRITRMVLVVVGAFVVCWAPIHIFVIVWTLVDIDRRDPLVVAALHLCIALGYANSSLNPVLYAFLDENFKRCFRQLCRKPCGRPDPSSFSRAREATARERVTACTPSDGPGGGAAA

For C[C@H]1Cc2c([nH]c3cc(Cl)c(F)cc23)[C@@]2(N1)C(=O)Nc1ccc(Cl)cc12 [CIPARGAMIN], which IC50 (Plasmodium falciparum [1]) is on record?
Its IC50 is 0.0005 µM.

And the CLint scaled [2]?
Its CLint scaled is 22.1 mL/min/kg.

What about the IC50 [3] of the same compound?
Its IC50 is over 10 µM.

And the IC50 [4]?
The IC50 was over 10 µM.

What about the IC50 (Plasmodium falciparum [5]) of the same compound?
The IC50 was 0.0014 µM.

And the IC50 (Plasmodium falciparum [6])?
The IC50 was 0.0028 µM.

What about the IC50 [7] of the same compound?
Its IC50 is over 10 µM.

What about the inhibition at 30 µM (hERG (KCNH2)) of the same compound?
The inhibition at 30 µM was 52%.

What about the IC50 [8] of the same compound?
The IC50 was over 10 µM.

What about the IC50 [9] of the same compound?
The IC50 was over 10 µM.

And the IC50 (Plasmodium falciparum [10])?
Its IC50 is 0.0109 µM.

And the IC50 [11]?
The IC50 was over 30 µM.

And the IC50 (Plasmodium falciparum [12])?
Its IC50 is 0.00189 µM.

What about the IC50 (Plasmodium falciparum [13]) of the same compound?
The IC50 was 0.001 µM.

What about the half-life (in vivo [14]) of the same compound?
The half-life was 27.7 h.

What about the IC50 [15] of the same compound?
Its IC50 is over 10 µM.

What about the IC50 (Mu-type opioid receptor) of the same compound?
Its IC50 is over 10 µM.

And the IC50 (Plasmodium falciparum [16])?
Its IC50 is 0.00157 µM.

And the IC50 (Plasmodium falciparum [17])?
Its IC50 is 0.0039 µM.

What about the IC50 (Plasmodium falciparum [18]) of the same compound?
Its IC50 is 0.0028 µM.

And the IC50 (Plasmodium falciparum [19])?
The IC50 was 0.0005 µM.

And the IC50 [20]?
Its IC50 is over 10 µM.

What about the IC50 [21] of the same compound?
The IC50 was over 30 µM.

What about the IC50 [22] of the same compound?
Its IC50 is over 10 µM.

And the Vd [23]?
The Vd was 2.11 L/kg.

And the AUC(0-inf) [24]?
The AUC(0-inf) was 524 µM·h.

And the IC50 (Endothelin-1 receptor)?
Its IC50 is over 30 µM.

What about the Cmax [25] of the same compound?
Its Cmax is 9.17 µM.

What about the IC50 [26] of the same compound?
The IC50 was over 10 µM.

What about the IC50 [27] of the same compound?
Its IC50 is over 10 µM.

What about the IC50 [28] of the same compound?
The IC50 was over 30 µM.

What about the Activity (Plasmodium berghei [29]) of the same compound?
Its Activity is 99.8%.

What about the IC50 [30] of the same compound?
The IC50 was over 30 µM.

And the IC50 (D(2) dopamine receptor)?
The IC50 was over 10 µM.

What about the IC50 (Adenosine receptor A2a) of the same compound?
Its IC50 is over 30 µM.

And the bioavailability [31]?
The bioavailability was 100%.

And the IC50 (Substance-P receptor)?
Its IC50 is over 10 µM.

What about the IC50 (Thromboxane A2 receptor) of the same compound?
The IC50 was over 30 µM.

And the IC50 (Adenosine receptor A3)?
The IC50 was 8.3 µM.

And the IC50 (Cannabinoid receptor 1)?
Its IC50 is over 10 µM.

What about the half-life (in vivo [32]) of the same compound?
Its half-life is 10 h.

And the Activity (Plasmodium berghei [33])?
Its Activity is 90%.

And the IC50 (Plasmodium falciparum [34])?
Its IC50 is 0.0032 µM.

And the AUC(0-inf) [35]?
Its AUC(0-inf) is 23.9 µM·h.

What about the IC50 (Androgen receptor) of the same compound?
Its IC50 is over 30 µM.

And the IC50 [36]?
Its IC50 is over 30 µM.

What about the IC50 (Glucocorticoid receptor) of the same compound?
Its IC50 is over 30 µM.

What about the IC50 (Vasopressin V2 receptor) of the same compound?
Its IC50 is over 30 µM.

What about the logD [37] of the same compound?
Its logD is 4.7.

And the IC50 [38]?
Its IC50 is over 30 µM.

And the IC50 [39]?
The IC50 was over 10 µM.
